Experimental data: US10487093B2, “Heterocyclic compounds, in particular 2-oxo-4,4,5,5,6,6,7,7-octahydrobenzoxazole derivatives, and their use as antibacterial compounds” (priority 2016, dated 2019)
Like-named read-outs stand apart in the source and are kept apart here.

How the values were obtained:
Assay type in all cases: cell-based
[1] = tested on: strains of Prevotella bivia; test: MIC against anaerobes, agar dilution (CLSI), clinical isolates
[2] = tested on: strains of Prevotella melaninogenica; test: as above
[3] = tested on: strains of Bacteroides fragilis; test: as above
[4] = tested on: Bacteroides fragilis ATCC 25285; test: MIC against anaerobes, agar dilution (CLSI), reference strain; conditions: ATCC25285, agar dilution, Brucella blood agar, 35° C., 48 h, anaerobic conditions, read-out: MIC, B. fragilis ATCC 25285
[5] = tested on: strains of Peptostreptococcus anaerobius; test: MIC against anaerobes, agar dilution (CLSI), clinical isolates
[6] = tested on: strains of Peptoniphilus harei; test: as above; conditions: Peptoniphilus harei, read-out: MIC
[7] = tested on: strains of Clostridium perfringens; test: microbe, parasite or virus in culture
[8] = tested on: Bacteroides thetaiotaomicron ATCC 29741; test: microbe, parasite or virus in culture; conditions: ATCC29741, 48 h, read-out: MIC, B. thetaiotaomicron ATCC
[9] = tested on: strains of Parvimonas micra; test: MIC against anaerobes, agar dilution (CLSI), clinical isolates
[10] = tested on: strains of Propionibacterium acnes; test: as above; conditions: Cutibacterium acnes
[11] = tested on: Clostridium difficile ATCC 700057; test: MIC against anaerobes, agar dilution (CLSI), reference strain; conditions: Clostridioides difficile, ATCC700057, 48 h, read-out: MIC, C. difficile ATCC 700057
[12] = tested on: strains of Finegoldia magna; test: MIC against anaerobes, agar dilution (CLSI), clinical isolates; conditions: Finegoldia magna, read-out: MIC
[13] = tested on: strains of Bacteroides thetaiotaomicron; test: microbe, parasite or virus in culture

Measured: MIC

Cc1ncc([N+](=O)[O-])n1CCO [MTZ, metronidazole, reference compound]
< 1 µg/mL: [2]; Prevotella melaninogenica strain 1 | [2]; Prevotella melaninogenica strain 2 | [2]; Prevotella melaninogenica strain 3 | [2]; Prevotella melaninogenica strain 4 | [2]; Prevotella melaninogenica strain 5 | [2]; Prevotella melaninogenica strain 6 | [2]; Prevotella melaninogenica strain 7 | [2]; Prevotella melaninogenica strain 8 | [2]; Prevotella melaninogenica strain 9 | [2]; Prevotella melaninogenica strain 10 | [2]; Prevotella melaninogenica strain 11 | [3]; Bacteroides fragilis strain 1 | [3]; Bacteroides fragilis strain 2 | [3]; Bacteroides fragilis strain 3 | [3]; Bacteroides fragilis strain 4 | [3]; Bacteroides fragilis strain 5 | [3]; Bacteroides fragilis strain 6 | [3]; Bacteroides fragilis strain 7 | [3]; Bacteroides fragilis strain 8 | [3]; Bacteroides fragilis strain 9 | [3]; Bacteroides fragilis strain 10 | [3]; Bacteroides fragilis strain 11 | [3]; Bacteroides fragilis strain 12 | [4] | [5]; Peptostreptococcus anaerobius strain 1 | [5]; Peptostreptococcus anaerobius strain 2 | [5]; Peptostreptococcus anaerobius strain 3 | [5]; Peptostreptococcus anaerobius strain 4 | [5]; Peptostreptococcus anaerobius strain 5 | [5]; Peptostreptococcus anaerobius strain 6 | [5]; Peptostreptococcus anaerobius strain 7 | [5]; Peptostreptococcus anaerobius strain 8 | [5]; Peptostreptococcus anaerobius strain 9 | [5]; Peptostreptococcus anaerobius strain 10 | [6]; Peptoniphilus harei strain 2 | [6]; Peptoniphilus harei strain 3 | [6]; Peptoniphilus harei strain 5 | [6]; Peptoniphilus harei strain 6 | [6]; Peptoniphilus harei strain 7 | [6]; Peptoniphilus harei strain 8 | [6]; Peptoniphilus harei strain 10 | [6]; Peptoniphilus harei strain 11 | [7]; Clostridium perfringens strain 2 | [7]; Clostridium perfringens strain 3 | [7]; Clostridium perfringens strain 4 | [7]; Clostridium perfringens strain 5 | [7]; Clostridium perfringens strain 7 | [7]; Clostridium perfringens strain 8 | [7]; Clostridium perfringens strain 9 | [7]; Clostridium perfringens strain 10 | [9]; Parvimonas micra strain 2 | [9]; Parvimonas micra strain 3 | [9]; Parvimonas micra strain 4 | [9]; Parvimonas micra strain 5 | [9]; Parvimonas micra strain 6 | [9]; Parvimonas micra strain 7 | [9]; Parvimonas micra strain 8 | [9]; Parvimonas micra strain 9 | [9]; Parvimonas micra strain 11 | [9]; Parvimonas micra strain 12 | [11] | [12]; Finegoldia magna strain 1 | [12]; Finegoldia magna strain 2 | [12]; Finegoldia magna strain 4 | [12]; Finegoldia magna strain 12 | [13]; Bacteroides thetaiotaomicron strain 1 | [13]; Bacteroides thetaiotaomicron strain 2 | [13]; Bacteroides thetaiotaomicron strain 7 | [13]; Bacteroides thetaiotaomicron strain 9
16 to 64 µg/mL: [10]; Propionibacterium acnes strain 1 | [10]; Propionibacterium acnes strain 2 | [10]; Propionibacterium acnes strain 3 | [10]; Propionibacterium acnes strain 4 | [10]; Propionibacterium acnes strain 5 | [10]; Propionibacterium acnes strain 6 | [10]; Propionibacterium acnes strain 7 | [10]; Propionibacterium acnes strain 8 | [10]; Propionibacterium acnes strain 9 | [10]; Propionibacterium acnes strain 10 | [10]; Propionibacterium acnes strain 11 | [10]; Propionibacterium acnes strain 12
1 to 4 µg/mL: [1]; Prevotella bivia strain 1 | [1]; Prevotella bivia strain 2 | [1]; Prevotella bivia strain 3 | [1]; Prevotella bivia strain 4 | [1]; Prevotella bivia strain 5 | [1]; Prevotella bivia strain 6 | [1]; Prevotella bivia strain 7 | [1]; Prevotella bivia strain 8 | [1]; Prevotella bivia strain 9 | [1]; Prevotella bivia strain 10 | [6]; Peptoniphilus harei strain 1 | [6]; Peptoniphilus harei strain 4 | [6]; Peptoniphilus harei strain 9 | [6]; Peptoniphilus harei strain 12 | [7]; Clostridium perfringens strain 1 | [7]; Clostridium perfringens strain 6 | [7]; Clostridium perfringens strain 11 | [8] | [9]; Parvimonas micra strain 1 | [9]; Parvimonas micra strain 10 | [12]; Finegoldia magna strain 3 | [12]; Finegoldia magna strain 5 | [12]; Finegoldia magna strain 6 | [12]; Finegoldia magna strain 7 | [12]; Finegoldia magna strain 8 | [12]; Finegoldia magna strain 9 | [12]; Finegoldia magna strain 10 | [12]; Finegoldia magna strain 11 | [13]; Bacteroides thetaiotaomicron strain 3 | [13]; Bacteroides thetaiotaomicron strain 4 | [13]; Bacteroides thetaiotaomicron strain 5 | [13]; Bacteroides thetaiotaomicron strain 6 | [13]; Bacteroides thetaiotaomicron strain 8 | [13]; Bacteroides thetaiotaomicron strain 10 | [13]; Bacteroides thetaiotaomicron strain 11
